The values that follow come from patent publication US8765773B2, “Substituted hydroxamic acids and uses thereof” (Millennium Pharmaceuticals, Inc., priority 2010, dated 2014).

In the first assay the target is T1, purified human HDAC6 (Homo sapiens, UniProt Q9UBN7).
T1 construct: purchased BPS Bioscience 5006
T1 sequence (Q9UBN7 1-1215): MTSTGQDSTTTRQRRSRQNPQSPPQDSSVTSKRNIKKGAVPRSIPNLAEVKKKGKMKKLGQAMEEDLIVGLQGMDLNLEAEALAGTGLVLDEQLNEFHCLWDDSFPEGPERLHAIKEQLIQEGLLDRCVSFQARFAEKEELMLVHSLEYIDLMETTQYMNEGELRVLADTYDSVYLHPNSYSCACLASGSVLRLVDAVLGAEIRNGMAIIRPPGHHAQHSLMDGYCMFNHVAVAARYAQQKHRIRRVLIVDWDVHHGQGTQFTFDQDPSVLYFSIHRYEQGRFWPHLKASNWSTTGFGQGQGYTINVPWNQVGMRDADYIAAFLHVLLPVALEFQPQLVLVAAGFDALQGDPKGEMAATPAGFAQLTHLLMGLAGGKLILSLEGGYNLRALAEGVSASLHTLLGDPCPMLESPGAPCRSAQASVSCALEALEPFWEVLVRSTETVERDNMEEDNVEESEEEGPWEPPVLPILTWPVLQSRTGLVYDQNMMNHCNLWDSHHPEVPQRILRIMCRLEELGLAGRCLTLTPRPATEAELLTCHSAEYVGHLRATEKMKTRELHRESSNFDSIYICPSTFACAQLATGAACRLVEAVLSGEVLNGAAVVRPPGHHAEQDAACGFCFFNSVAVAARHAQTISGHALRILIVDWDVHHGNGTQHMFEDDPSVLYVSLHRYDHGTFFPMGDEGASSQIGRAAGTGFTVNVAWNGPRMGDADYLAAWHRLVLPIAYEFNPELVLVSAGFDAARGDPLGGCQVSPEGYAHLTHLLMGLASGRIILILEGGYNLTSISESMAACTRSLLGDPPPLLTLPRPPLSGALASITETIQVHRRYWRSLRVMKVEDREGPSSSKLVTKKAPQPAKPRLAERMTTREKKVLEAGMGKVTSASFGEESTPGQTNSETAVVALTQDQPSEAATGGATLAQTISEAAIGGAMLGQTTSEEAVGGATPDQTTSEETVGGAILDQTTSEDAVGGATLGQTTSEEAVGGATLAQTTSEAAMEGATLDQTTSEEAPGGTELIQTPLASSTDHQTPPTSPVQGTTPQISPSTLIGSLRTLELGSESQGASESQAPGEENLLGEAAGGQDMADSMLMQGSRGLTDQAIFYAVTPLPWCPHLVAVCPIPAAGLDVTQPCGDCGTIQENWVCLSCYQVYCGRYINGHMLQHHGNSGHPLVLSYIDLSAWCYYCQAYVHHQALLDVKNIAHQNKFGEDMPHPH
In words: HDAC6 Enzyme Assay. It counts as biochemical. As to conditions: compound concentration 0.37 μM, read-out: Percent Inhibition. The method in brief: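 Purified human HDAC6 incubated 1 h at 30° C with Ac-Arg-Gly-Lys(Ac)-AMC peptide plus compound or DMSO; stopped with trichostatin A. Deacetylated product trypsin-digested, released AMC read by fluorescence (Ex 340/Em 460 nm). Percent inhibition at one concentration or IC50 from curves relative to DMSO controls.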
For `CN(C)c1ccc(-c2nc3cc(C(=O)NO)ccc3c(=O)n2Cc2ccc(C(F)(F)F)cc2)cc1` [Compound I-274, 2-[4-(dimethylamino)phenyl]-N-hydroxy-4-oxo-3-[4-(trifluoromethyl)benzyl]-3,4-dihydroquinazoline-7-carboxamide], the inhibition at 0.37 µM stood at 78.8%. On the same count and under the same terms, under `COc1cccc(-c2cccc(Cn3cnc4ccc(C(=O)NO)cc4c3=O)c2)c1` [Compound I-281, N-hydroxy-3-[(3′-methoxybiphenyl-3-yl)methyl]-4-oxo-3,4-dihydroquinazoline-6-carboxamide] stands 90.8%. Still for that read-out and setting: under `O=C(NO)c1ccc2ncn(CCc3cccc(-c4cccc(C(=O)NC5CC5)c4)c3)c(=O)c2c1` [Compound I-291, 3-(2-{3′-[(cyclopropylamino)carbonyl]biphenyl-3-yl}ethyl)-N-hydroxy-4-oxo-3,4-dihydroquinazoline-6-carboxamide] stands 89.6%; under `O=C(NO)c1ccc2c(Br)cn(Cc3ccccc3)c(=O)c2c1` [Compound I-292, 2-benzyl-4-bromo-N-hydroxy-1-oxo-1,2-dihydroisoquinoline-7-carboxamide], 82.8%; under `O=C(NO)c1ccc2ccn(CCC(c3ccc(Cl)cc3)c3ccc(Cl)cc3)c(=O)c2c1` [Compound I-293, 2-[3,3-bis(4-chlorophenyl)propyl]-N-hydroxy-1-oxo-1,2-dihydroisoquinoline-7-carboxamide], 91.5%. For `CC(C)NCCn1cnc2ccc(C(=O)NO)cc2c1=O` [Compound I-294, N-hydroxy-3-[2-(isopropylamino)ethyl]-4-oxo-3,4-dihydroquinazoline-6-carboxamide], the inhibition at 0.37 µM was found to be 56%. Still for that read-out and setting: the result for `O=C(NO)c1ccc2ncn(CCc3cccc(-c4ccc(C(F)(F)F)cc4)c3)c(=O)c2c1` [Compound I-295, N-hydroxy-4-oxo-3-{2-[4′-(trifluoromethyl)biphenyl-3-yl]ethyl}-3,4-dihydroquinazoline-6-carboxamide] reads 72.5%; that for `Cc1ccccc1-c1cccc(CCn2cnc3ccc(C(=O)NO)cc3c2=O)c1` [Compound I-296, N-hydroxy-3-[2-(2′-methylbiphenyl-3-yl)ethyl]-4-oxo-3,4-dihydroquinazoline-6-carboxamide], 94.2%. Still for that read-out and setting: under `CC(C)c1ccc(-c2cccc(CCn3cnc4ccc(C(=O)NO)cc4c3=O)c2)cc1` [Compound I-297, N-hydroxy-3-[2-(4′-isopropylbiphenyl-3-yl)ethyl]-4-oxo-3,4-dihydroquinazoline-6-carboxamide] stands 61.5%; under `O=C(NO)c1ccc2ccn(-c3ccccc3Cl)c(=O)c2c1` [Compound I-298, 2-(2-chlorophenyl)-N-hydroxy-1-oxo-1,2-dihydroisoquinoline-7-carboxamide], 94.6%; under `O=C(NO)c1ccc2ncn(CCc3cccc(-c4ccc(S(=O)(=O)N5CCCCC5)cc4)c3)c(=O)c2c1` [Compound I-299, N-hydroxy-4-oxo-3-{2-[4′-(piperidin-1-ylsulfonyl)biphenyl-3-yl]ethyl}-3,4-dihydroquinazoline-6-carboxamide], 90.6%.

`O=C(NO)c1ccc2ncn(CCc3cccc(-c4ccc(F)cc4)c3)c(=O)c2c1` [Compound I-300, 3-[2-(4′-fluorobiphenyl-3-yl)ethyl]-N-hydroxy-4-oxo-3,4-dihydroquinazoline-6-carboxamide]: the inhibition at 0.37 µM turned out to be 91.7%. Same read-out and setting: the result for `Cc1ccc(-c2cccc(CCn3cnc4ccc(C(=O)NO)cc4c3=O)c2)cc1` [Compound I-301, N-hydroxy-3-[2-(4′-methylbiphenyl-3-yl)ethyl]-4-oxo-3,4-dihydroquinazoline-6-carboxamide] reads 88.1%.

The assay is the same for the next values; noted with them: compound concentration 0.412 μM, read-out: Percent Inhibition.
As for `O=C(NO)c1ccc2ccn(Cc3nc4ccccc4s3)c(=O)c2c1` [Compound I-272, 2-(1,3-benzothiazol-2-ylmethyl)-N-hydroxy-1-oxo-1,2-dihydroisoquinoline-7-carboxamide], the inhibition at 0.412 µM was determined as 97.5%. For the compound `O=C(Cn1cnc2ccc(C(=O)NO)cc2c1=O)c1ccc(N2CCCC2)cc1` [Compound I-273, N-hydroxy-4-oxo-3-[2-oxo-2-(4-pyrrolidin-1-ylphenyl)ethyl]-3,4-dihydroquinazoline-6-carboxamide], the inhibition at 0.412 µM was 85.1%. Still for that read-out and setting: the result for `CC(C)CCCn1cnc2cc(C(=O)NO)ccc2c1=O` [Compound I-275, N-hydroxy-3-(4-methylpentyl)-4-oxo-3,4-dihydroquinazoline-7-carboxamide] reads 94.9%; that for `CCOCCn1cnc2cc(C(=O)NO)ccc2c1=O` [Compound I-276, 3-(2-ethoxyethyl)-N-hydroxy-4-oxo-3,4-dihydroquinazoline-7-carboxamide], 88.1%. As for `O=C(NO)c1ccc2ccn(CCN3CCCCC3)c(=O)c2c1` [Compound I-277, N-hydroxy-1-oxo-2-(2-piperidin-1-ylethyl)-1,2-dihydroisoquinoline-7-carboxamide], the inhibition at 0.412 µM came out at 71.2%.

For the compound `O=C(NO)c1ccc2c(=O)[nH]c(C(=O)NC3CCNCC3)nc2c1` [Compound I-278, N^7-hydroxy-4-oxo-N^2-piperidin-4-yl-3,4-dihydroquinazoline-2,7-dicarboxamide], the inhibition at 0.412 µM worked out at 26.2%. Consider `O=C(NO)c1ccc2ccn(Cc3ccccn3)c(=O)c2c1` [Compound I-279, N-hydroxy-1-oxo-2-(pyridin-2-ylmethyl)-1,2-dihydroisoquinoline-7-carboxamide], for which the inhibition at 0.412 µM was determined as 87.9%. Still for that read-out and setting: under `O=C(NO)c1ccc2c(=O)n(-c3ccc(Cl)cc3)c(=O)[nH]c2c1` [Compound I-280, 3-(4-chlorophenyl)-N-hydroxy-2,4-dioxo-1,2,3,4-tetrahydroquinazoline-7-carboxamide] stands 20.9%; under `O=C(NO)c1ccc2ccn(CCOc3cccc(C(F)(F)F)c3)c(=O)c2c1` [Compound I-282, N-hydroxy-1-oxo-2-{2-[3-(trifluoromethyl)phenoxy]ethyl}-1,2-dihydroisoquinoline-7-carboxamide], 95.5%; under `O=C(NO)c1ccc2nc[nH]c(=O)c2c1` [Compound I-283, N-hydroxy-4-oxo-3,4-dihydroquinazoline-6-carboxamide], 63.3%. The same measure, in the same setting: under `O=C(NO)c1ccc2c(=O)[nH]cnc2c1` [Compound I-284, N-hydroxy-4-oxo-3,4-dihydroquinazoline-7-carboxamide] stands 76.8%; under `COc1ccc(CCn2ccc3ccc(C(=O)NO)cc3c2=O)cc1` [Compound I-285, N-hydroxy-2-[2-(4-methoxyphenyl)ethyl]-1-oxo-1,2-dihydroisoquinoline-7-carboxamide], 95.3%. For the compound `Cn1c(=O)[nH]c2cc(C(=O)NO)ccc2c1=O` [Compound I-286, N-hydroxy-3-methyl-2,4-dioxo-1,2,3,4-tetrahydroquinazoline-7-carboxamide], the inhibition at 0.412 µM stood at 21.2%.

In the case of `Cn1ccc2ccc(C(=O)NO)cc2c1=O` [Compound I-287, N-hydroxy-2-methyl-1-oxo-1,2-dihydroisoquinoline-7-carboxamide], the inhibition at 0.412 µM came out at 67.6%.

As for `CC(C)(C)c1ccc(Cn2cnc3ccc(C(=O)NO)cc3c2=O)cc1` [Compound I-288, 3-(4-tert-butylbenzyl)-N-hydroxy-4-oxo-3,4-dihydroquinazoline-6-carboxamide], the inhibition at 0.412 µM is 94.9%. With `O=C(NO)c1ccc2ccn(Cc3ccc(-n4cccn4)cc3)c(=O)c2c1` [Compound I-289, N-hydroxy-1-oxo-2-[4-(1H-pyrazol-1-yl)benzyl]-1,2-dihydroisoquinoline-7-carboxamide], the inhibition at 0.412 µM was found to be 96.7%. On the same count and under the same terms, under `O=C(NO)c1ccc2ccn(Cc3ccc4nonc4c3)c(=O)c2c1` [Compound I-290, 2-(2,1,3-benzoxadiazol-5-ylmethyl)-N-hydroxy-1-oxo-1,2-dihydroisoquinoline-7-carboxamide] stands 98.5%.

The term inhibition denotes the share of the control response that was lost under treatment.
